Values quoted from earlier work, collected in patent US20170274026A1, “METHOD OF MAKING TRITERPENOIDS FROM PETRI DISH CULTUREDANTRODIA CINNAMOMEA” (Ultra-Microrigin Biomedical Technology Co., Ltd., priority 2016, published 2017).

Tested on: cancer cells
Settings: Toxicology in Vitro and International Journal of Gerontology

For `C=C(CC[C@@H](C(=O)O)[C@H]1C[C@H](O)[C@@]2(C)C3=CC[C@H]4C(C)(C)[C@@H](O)CC[C@]4(C)C3=CC[C@]12C)C(C)C` [MMH01, dehydrosulphurenic acid], the “anti-tumor effect and repressing the growth of cancer cells” value is given as “effective in anti-tumor and repressing the growth of cancer cells”.
